Holding throughout (assay): inhibition of tumour cell growth, NCI panel, 48 h
Test [1] relates to XF498.
Test [2] relates to KM-20L2.
Test [3] has as its system DMS-273.
For test [4], the system named is DLD-1.
In test [5] the test system is SNB-78.
In test [6] the test system is LXFL 529.
The test system of test [7] is M19-MEL.
Test [8] relates to HOP-18.
For test [9], the system named is RXF 631.

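Briefly, cells in 96-well plates were exposed to five compound concentrations for 48 h, and endpoints were estimated by linear interpolation. GI50: concentration for 50% inhibition of growth.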 Calls of active or inactive are those of the source. Rule as the data show it: active = GI50 up to about 1.1 µM and inactive = higher.

On to `COc1ccc(/C=C2\CN(C)Cc3c2nc(N)nc3-c2ccc(OC)cc2)cc1`, for which the GI50 in test [1] was 35 µM (inactive); in test [2], 82 µM (inactive); in test [3], > 100 µM (inactive); in test [4], 57 µM (inactive); in [5], > 100 µM (inactive); in [6], 49.5 µM (inactive). Further, the GI50 in test [7] is 95.3 µM (inactive).
On to `C/C(=N\NS(=O)(=O)c1ccc([N+](=O)[O-])cc1)c1ccc[n+]([O-])n1`, for which the GI50 was 2.64 µM (inactive) in test [1]; 4.48 µM (inactive) in [2]; 0.764 µM (active) in test [3]; 11.6 µM (inactive) in test [8]; 2.58 µM (inactive) in test [4]; 4.48 µM (inactive) in [5]. Moreover, the results for the GI50 in [6] and in test [7] were 2.21 µM (inactive) and 2.04 µM (inactive), respectively.
For the compound `NC1N=Nc2ccccc21` (stereo not given), the GI50 in test [1], in test [2], in test [3], in test [4], in test [6] and in test [7] was > 100 µM (inactive) in each case. In addition, in [9], the GI50 was > 100 µM (inactive).
With `CCCCCCCCCCCCCC(=S)N/C=C/OC`, the GI50 is 24.3 µM (inactive) in [1]; 40.1 µM (inactive) in test [2]; 35.8 µM (inactive) in test [8]; 33.4 µM (inactive) in test [4]; 48 µM (inactive) in [5]; 38.3 µM (inactive) in test [6]. In addition, the GI50 in [7] was 31.1 µM (inactive).
In the case of `COC1OC(C)C(OC(=O)C(C)(C)C)C(OS(=O)(=O)c2ccc(C)cc2)C1OS(=O)(=O)c1ccc(C)cc1` (stereo not given), the GI50 in [2], in test [3], in test [8], in test [4], in [5] and in test [6] was > 100 µM (inactive) throughout. Moreover, the GI50 in test [7] is > 100 µM (inactive).
With `COC1/C=C/O[C@@]2(C)Oc3c(C)c(O)c4c(O)c(cc(O)c4c3C2=O)NC(=O)/C(C)=C\C=C\[C@H](C)C(O)[C@@H](C)[C@@H](O)[C@@H](C)[C@H](OC(C)=O)[C@@H]1C` (stereo not given in full), the GI50 in [1] was 14.8 µM (inactive); in [2] it was 13.3 µM (inactive); in test [3], 17.9 µM (inactive); in test [8], 17.7 µM (inactive); in [4], 10.1 µM (inactive); in test [5], 32.8 µM (inactive). Besides, the GI50 in test [7] is 12.1 µM (inactive).
`Cc1cc(C)nc(Nc2nc3cc([N+](=O)[O-])ccc3[nH]2)n1`: the GI50 in [1], in test [2], in test [3], in test [4], in test [5] and in test [6] was > 100 µM (inactive) throughout.
With `O=C1c2ccccc2C(=O)c2c1oc1cc(O)c(Cl)cc21`, the GI50 in [1] is 7.41 µM (inactive); in [2] it was 2.67 µM (inactive); in [3], 2.41 µM (inactive); in test [8] it was 1.73 µM (inactive); in test [4] it was 6.22 µM (inactive); in [5] it was 5.69 µM (inactive). For the same compound, the GI50 was 20.5 µM (inactive) in [6] and 0.177 µM (active) in [7].
`CCOC(=O)/N=C(\N)SCc1ccccc1`: the GI50 in test [1], in [2], in test [3], in test [8], in [4] and in test [5] was > 100 µM (inactive) in each case. Also, the GI50 in [6], in [7] and in test [9] was > 100 µM (inactive) throughout.
As to `COc1ccc(/C=C/c2cc(OC)c(O[Si](C)(C)C(C)(C)C)c(OC)c2)cc1`, the GI50 was > 100 µM (inactive) in test [1]; > 100 µM (inactive) in test [2]; 67 µM (inactive) in test [3]; > 100 µM (inactive) in test [4]; > 100 µM (inactive) in test [6]; 46.5 µM (inactive) in test [7]. For the same compound, the GI50 in test [9] is 73.1 µM (inactive).
Turning to `NC(=O)N1N=C2c3ccccc3CC[C@@H]2C1c1ccccc1` (stereo not given in full), the GI50 in test [2], in test [3], in [4], in test [5], in test [6] and in test [7] was > 100 µM (inactive) each time.
With `N#CCCN(c1ccc(/C=N/c2ccccc2)cc1)S(=O)(=O)c1ccccc1`, the GI50 is 0.834 µM (active) in [1]; > 100 µM (inactive) in test [3]; > 100 µM (inactive) in test [4]; > 100 µM (inactive) in test [5]; 4.44 µM (inactive) in [6]; > 100 µM (inactive) in test [7].
As for `CCCCNC(=NC#N)NCCCC`, the GI50 in test [1], in test [2], in test [3], in [8], in test [4] and in test [5] was > 100 µM (inactive) throughout. The GI50 in test [6] was > 100 µM (inactive); in [7], 83.4 µM (inactive); in test [9] it was > 100 µM (inactive).
For the compound `O=C1/C(=C/c2ccccc2)CN(C(=O)OCc2ccccc2)C/C1=C\c1ccccc1`, the GI50 in [1] is 16.6 µM (inactive); in test [2] it was 11.1 µM (inactive); in [3] it was 5 µM (inactive); in [8] it was > 10 µM (inactive); in test [4], 3.63 µM (inactive); in test [5], 14.8 µM (inactive). For the same compound, the GI50 in test [7] is 5.87 µM (inactive); in test [9] it was 16.9 µM (inactive).
Take `O=C1C(Cl)C(c2ccc(O)cc2)N1n1cnc2ccccc2c1=O` (stereo not given): the GI50 is 33.5 µM (inactive) in test [1]; 58.9 µM (inactive) in [2]; 39.8 µM (inactive) in test [3]; 49.4 µM (inactive) in test [8]; 19.1 µM (inactive) in test [4]; 49 µM (inactive) in test [5]. Further, the GI50 was 16.7 µM (inactive) in [6] and 22.2 µM (inactive) in [7].
For the compound `CN(C)CCCNc1c2ccccc2nc2cccc([N+](=O)[O-])c12`, the GI50 in [1] was 0.01 µM (active); in test [2], 0.01 µM (active); in test [3], 0.01 µM (active); in [5], 0.0117 µM (active); in test [7] it was 0.01 µM (active).
For the compound `CC(=O)N/N=C1\CC(C)(C)C2CCC1C2` (stereo not given), the GI50 in [1], in test [3], in test [5], in test [6] and in test [7] was > 100 µM (inactive) each time.
`COc1ccc(C2Oc3ccc(O)cc3[C@@H]2C)cc1OC` (stereo not given in full): the GI50 in test [1], in test [2], in test [3], in test [8], in [4] and in test [5] was > 100 µM (inactive) in each case. The GI50 was 71 µM (inactive) in [6] and > 100 µM (inactive) in test [7].
Consider `Cc1nn(-c2nc3ccccc3s2)c2c1C(=O)c1ccccc1-2`, for which the GI50 in [2] is > 100 µM (inactive); in test [3] it was > 100 µM (inactive); in test [8] it was > 100 µM (inactive); in test [4], > 100 µM (inactive); in test [5], > 100 µM (inactive); in test [6], 74.8 µM (inactive). The GI50 in test [7] was > 100 µM (inactive).
For `CCCCCCCCCCCOC(=S)NC(C)C`, the GI50 is 16.7 µM (inactive) in [1]; 16 µM (inactive) in [2]; 18.3 µM (inactive) in test [3]; 27.5 µM (inactive) in test [8]; 21.4 µM (inactive) in [4]; 33.9 µM (inactive) in [5]. In addition, the GI50 is 25.8 µM (inactive) in test [6] and 24.9 µM (inactive) in [7].
Take `O=[N+]([O-])c1ccc(C2CC(c3ccc(NCc4nc5ccccc5[nH]4)cc3)=NO2)cc1` (stereo not given): the GI50 in test [3] was 32.1 µM (inactive); in test [8], > 100 µM (inactive); in [4], 45 µM (inactive); in [6] it was 16.4 µM (inactive); in [7] it was 33.7 µM (inactive).
As for `O=C(/C=N/c1ccccc1[S-])c1ccco1.O=C(/C=N/c1ccccc1[S-])c1ccco1.[Zn+2]`, the GI50 in test [2] is 15.3 µM (inactive); in [4] it was 4.44 µM (inactive); in test [5], 16.8 µM (inactive); in test [6], 10 µM (inactive); in test [9], 17 µM (inactive).
Regarding `COc1ccc(Br)c2c1CC(C(=O)O)CC2` (stereo not given), the GI50 in test [1], in test [2], in [3], in [8], in test [4] and in [5] was > 100 µM (inactive) each time. The GI50 in [6] is > 100 µM (inactive).
For `COC1(C)CC2N(C(=O)c3ccccc3)N=C(c3ccccc3)CC2(C)O1` (stereo not given), the GI50 in test [1] was > 100 µM (inactive); in test [2], > 100 µM (inactive); in test [4], 44.5 µM (inactive); in test [6], > 100 µM (inactive); in test [9] it was > 100 µM (inactive).

The values are drawn from ChEMBL document CHEMBL1201862, “PubChem BioAssay data set” (2004).
